The values that follow come from patent publication US9957214B2, “Multifunctional radical quenchers” (ARIZONA BOARD OF REGENTS ON BEHALF OF ARIZONA STATE …, priority 2012, dated 2018).

What is called IC50 is the point on the concentration scale where inhibition reaches its midpoint.

Entries after “also recorded” stand apart in the source; their conditions may differ.

The test system of one test is FRDA lymphocytes. Nature of the test: Preservation of mitochondrial membrane potential (TMRM flow cytometry) in DEM-treated FRDA lymphocytes. Format: cell-based. On the procedure: FIG. 3. Effect of nitrogen-containing 1,4-benzoquinone derivatives on mitochondrial membrane potential of cultured FRDA cells. Representative flow cytometric two dimensional color density dot plot analyses of mitochondrial membrane potential Δψm in FRDA lymphocytes stained with TMRM and analyzed using the FL2-H channel as described in Experimental Section. The cells were washed twice in phosphate buffered saline, and suspended in phosphate buffered saline containing 20 mM glucose. The percentage of cells with intact Δψm is indicated in the top right quadrant of captions. In each analysis, 10,000 events were recorded. Data are expressed as means±SEM of three independent experiments run in duplicate.
Mitochondrial membrane potential was measured using two different fluorescent dyes, TMRM and JC-1. Δψm was determined as previously described by staining FRDA lymphocyte cells with TMRM (Molecular Probes, Eugene, Oreg.) and analyzing fluorescence emission by flow cytometry in detection channel 2 (FL2-H) (Khdour et al. (2011) Pharmaceut. Res. 28, 2896-2909). Briefly, FRDA lymphocytes were pre-treated with or without the test compounds for 16 h. The cells were treated with 5 mM DEM for 140 min, collected by centrifugation at 300×g for 3 min and then washed twice with phosphate buffered saline. The cells were resuspended in PBS containing […] and incubated at 37° C. in the dark for 15 min with 250 nM TMRM. Cells were collected by centrifugation at 300×g for 3 min and were then washed with phosphate buffered saline. The samples were analyzed immediately by flow cytometry using a 488 nm excitation laser and the FL2-H channel. The results obtained were verified in three independent experiments. […] In each analysis, 10,000 events were recorded. […] The following day, cells were treated with tested compounds and incubated for an additional 12 h before treatment with 1 mM BSO. Δψm was assessed after 24 h using JC-1 Mitochondrial Membrane Potential Detection Kit (Biotium, Inc) following the manufacturer instruction. Glass cover slips were rinsed with phosphate-buffered saline and mounted onto slides, and images were recorded and analyzed with a Zeiss AxioCam MRm and AxioVision 3.1 software (Carl Zeiss Goettingen, Germany) on a Zeiss Axiovert 200 M inverted microscope, equipped with a 40× oil immersion objective.
The ability of the test compounds to preserve mitochondrial membrane potential under conditions of oxidative stress was studied. […] Changes in mitochondrial membrane potential (Δψm) were measured using two different fluorescent dyes, tetramethylrhodamine methyl ester (TMRM) and 5,5′,6,6′-tetrachloro-1,1′,3,3′-tetraethylbenzimidazolocarbocyanine iodide (JC-1). […] The fluorescence signal of TMRM can be directly co-related to Δψm across the inner mitochondrial membrane. […]
For orientation: In flow cytometry, cells or beads pass a laser one at a time.

In test [1] the target is bovine heart mitochondrial complex I (Bos taurus, UniProt P03887+P17694+P42026). Description: Complex I (NADH-Q1 oxidoreductase) inhibition in submitochondrial particles. Format: biochemical. The following applies: submitochondrial particles, 30° C.; for IC50: read-out: Complex I inhibition IC50; for Emax: read-out: Complex I inhibition Imax.
Another test concerns CEM leukemia cells. Description: Suppression of ROS production (DCFH-DA flow cytometry) in DEM-treated CEM leukemia cells. Format: cell-based. As to conditions: CEM leukemia cells pretreated with DEM, read-out: Scavenging activity (%), suppression of ROS production. As to the method: FIG. 1. Flow cytometric analysis of CEM leukemia lymphocytes (gray bars) and FRDA lymphocytes (black bars) stained with dichlorodihydrofluorescein diacetate (DCFH-DA) for 20 min, following pretreatment with the test compounds at 5 μM concentration for 16 h, and subsequent treatment with diethyl maleate (DEM) for 60 or 80 min to induce the production of ROS in CEM and FRDA lymphocytes, respectively. Data shown represent the mean±SEM of two different experiments run as duplicates.
Intracellular ROS production was measured in FRDA lymphocyte cells (GM15850, Coriell Cell Repositories, Camden, N.J.) using the oxidant sensitive fluorescent probe 2,7-dichlorodihydrofluorescein diacetate (DCFH-DA) (Molecular Probes) as described previously (Khdour et al. (2011) Pharm. Res. 28, 2896-2909). One mL of FRDA lymphocyte cells or leukemic CEM cells (5×10^5 cells) were plated in a 24-well plate, treated with the test compounds and incubated at 37° C. for 16 h in a humidified atmosphere containing 5% CO2 in air. Cells were treated with 5 mM diethyl maleate (DEM) for 80 min or 60 min respectively, collected by centrifugation at 300×g for 3 min and then washed with phosphate buffered saline (PBS) (Life Technologies). Cells were resuspended in PBS containing 20 mM glucose and incubated at 37° C. in the dark for […] with 10 μM DCFH-DA. Cells were collected by centrifugation at 300×g for 3 min and then washed with PBS. The samples were analyzed immediately by flow cytometry (C6 Accuri, BD Biosciences, San Jose, Calif.), using a 488 nm excitation laser and the FL1-H channel 530±15 nm emission filter. The generation of ROS, mainly peroxides, was detected as a result of the oxidation of DCFH. In each analysis, 10,000 events were recorded after cell debris was electronically gated out. Results obtained were verified by running duplicates and repeating experiments in three independent runs. Results were expressed as percentage of ROS scavenging activity.
The ability of the synthesized analogues to quench ROS and lipid peroxidation was evaluated in FRDA lymphocytes or leukemic CEM cells. These cells were placed under oxidative stress by depleting them of glutathione (GSH) using diethyl maleate (DEM). Depletion of glutathione by treatment FRDA lymphocytes or leukemic CEM cells with DEM has been used to induce oxidative stress in cellular systems by generation of ROS. Intracellular ROS production was measured using the oxidant sensitive fluorescent probe 2,7-dichlorodihydrofluorescein diacetate (DCFH-DA) (Molecular Probes).

Sequence of bovine heart mitochondrial complex I (P25708 21-464): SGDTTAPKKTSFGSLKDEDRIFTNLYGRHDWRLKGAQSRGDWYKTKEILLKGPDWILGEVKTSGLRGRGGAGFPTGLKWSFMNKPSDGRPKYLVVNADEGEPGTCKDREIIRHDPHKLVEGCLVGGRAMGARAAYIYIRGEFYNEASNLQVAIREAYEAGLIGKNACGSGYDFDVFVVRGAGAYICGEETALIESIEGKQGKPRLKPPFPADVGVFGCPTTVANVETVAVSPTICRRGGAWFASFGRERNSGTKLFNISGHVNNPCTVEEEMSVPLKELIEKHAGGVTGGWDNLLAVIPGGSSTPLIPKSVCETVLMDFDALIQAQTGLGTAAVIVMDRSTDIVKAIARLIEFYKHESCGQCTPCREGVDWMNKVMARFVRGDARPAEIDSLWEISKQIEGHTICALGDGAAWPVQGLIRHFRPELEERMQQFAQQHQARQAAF
Sequence of bovine heart mitochondrial complex I (P42026 38-216): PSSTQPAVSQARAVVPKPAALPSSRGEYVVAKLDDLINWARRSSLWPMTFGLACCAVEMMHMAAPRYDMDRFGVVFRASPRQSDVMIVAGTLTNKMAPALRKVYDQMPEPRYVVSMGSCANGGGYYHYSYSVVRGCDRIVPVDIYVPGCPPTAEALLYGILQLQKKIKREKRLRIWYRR
Sequence of bovine heart mitochondrial complex I (P17694 34-463): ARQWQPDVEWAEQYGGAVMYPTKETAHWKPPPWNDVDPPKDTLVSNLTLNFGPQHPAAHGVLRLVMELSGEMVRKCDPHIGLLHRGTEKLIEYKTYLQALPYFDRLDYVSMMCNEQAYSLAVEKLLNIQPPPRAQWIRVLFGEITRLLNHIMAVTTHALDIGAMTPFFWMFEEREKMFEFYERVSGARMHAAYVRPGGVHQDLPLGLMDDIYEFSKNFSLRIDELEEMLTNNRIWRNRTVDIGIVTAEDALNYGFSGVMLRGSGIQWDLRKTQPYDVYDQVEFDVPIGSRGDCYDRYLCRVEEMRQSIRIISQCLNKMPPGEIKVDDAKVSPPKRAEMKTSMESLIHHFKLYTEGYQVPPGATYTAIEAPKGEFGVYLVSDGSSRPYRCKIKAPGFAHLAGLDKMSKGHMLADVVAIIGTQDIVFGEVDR
Sequence of bovine heart mitochondrial complex I (P15690 24-727, further chain): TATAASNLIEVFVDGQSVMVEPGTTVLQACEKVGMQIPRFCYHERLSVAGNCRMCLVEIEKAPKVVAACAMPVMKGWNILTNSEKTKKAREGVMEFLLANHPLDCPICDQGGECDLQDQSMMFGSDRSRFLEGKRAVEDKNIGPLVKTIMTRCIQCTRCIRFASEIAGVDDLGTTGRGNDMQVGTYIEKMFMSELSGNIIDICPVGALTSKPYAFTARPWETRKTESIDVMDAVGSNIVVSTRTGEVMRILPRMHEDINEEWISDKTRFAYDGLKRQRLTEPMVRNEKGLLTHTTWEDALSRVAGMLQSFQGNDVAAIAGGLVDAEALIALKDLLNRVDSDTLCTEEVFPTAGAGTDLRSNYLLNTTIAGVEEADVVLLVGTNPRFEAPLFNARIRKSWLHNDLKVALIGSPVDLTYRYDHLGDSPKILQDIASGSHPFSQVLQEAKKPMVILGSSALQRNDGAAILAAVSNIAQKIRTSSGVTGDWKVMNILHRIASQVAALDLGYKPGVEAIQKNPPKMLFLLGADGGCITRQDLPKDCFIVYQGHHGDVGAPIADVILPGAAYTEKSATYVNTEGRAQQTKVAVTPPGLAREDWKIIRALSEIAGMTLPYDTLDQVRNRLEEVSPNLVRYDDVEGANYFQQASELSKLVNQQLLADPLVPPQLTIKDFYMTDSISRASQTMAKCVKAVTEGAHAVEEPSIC
Sequence of bovine heart mitochondrial complex I (P03887 whole entry): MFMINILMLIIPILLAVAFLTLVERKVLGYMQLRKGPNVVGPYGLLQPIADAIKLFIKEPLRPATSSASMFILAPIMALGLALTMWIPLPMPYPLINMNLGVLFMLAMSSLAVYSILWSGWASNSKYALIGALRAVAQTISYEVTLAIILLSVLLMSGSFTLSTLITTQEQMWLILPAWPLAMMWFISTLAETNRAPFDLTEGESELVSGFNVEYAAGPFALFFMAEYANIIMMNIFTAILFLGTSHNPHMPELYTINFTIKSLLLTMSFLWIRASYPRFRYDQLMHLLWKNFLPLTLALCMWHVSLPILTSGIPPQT
Sequence of bovine heart mitochondrial complex I (P42028 37-212, further chain): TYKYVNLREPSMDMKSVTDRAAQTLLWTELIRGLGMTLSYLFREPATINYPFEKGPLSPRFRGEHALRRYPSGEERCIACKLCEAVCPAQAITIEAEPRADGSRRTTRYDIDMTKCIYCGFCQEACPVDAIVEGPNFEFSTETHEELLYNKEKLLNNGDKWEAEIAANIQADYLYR

With `CCCCCCCCCCCCCC1=C(OC)C(=O)C=C(NCCCC(=O)OC(C)(C)C)C1=O` [Compound 7, tert-butyl 4-(4-methoxy-3,6-dioxo-5-tridecylcyclohexa-1,4-dienylamino)butanoate], in the test with FRDA lymphocytes, the “Preservation of mitochondrial membrane potential Δψm (in words)” value is given as “preserved mitochondrial membrane potential; also recorded: able to prevent oxidative-stress induced collapse of Δψm”. For the same compound, in test [1], the IC50 was 540 ± 17 µM and the Emax was > 85%. For `CCCCCCCCCCCCCC1=C(OC)C(=O)C=C(NCCCC(=O)OCCCCCC)C1=O` [Compound 18, Hexyl 4-(4-methoxy-3,6-dioxo-5-tridecylcyclohexa-1,4-dienylamino)butanoate] the same measures were “prevented the loss of Δψm”, 513 ± 38 µM and > 85%. Take `COC1=C2CCCCCCCCCCCCCCCNC(=CC1=O)C2=O` [Compound 40]: the “Preservation of mitochondrial membrane potential Δψm (in words)” value in the test with FRDA lymphocytes is “prevented the loss of Δψm; also recorded: able to prevent oxidative-stress induced collapse of Δψm”. In the case of `CCCCCCCCCCCCCC1=C(OC)C(=O)C(C)=C(NCCCC(=O)OC(C)(C)C)C1=O` [Compound 43, tert-butyl 4-(4-methoxy-2-methyl-3,6-dioxo-5-tridecylcyclohexa-1,4-dienylamino)butanoate], in the test with CEM leukemia cells, the inhibition at 5 µM amounted to 35 ± 6%. The same measure, in the same setting: in the case of `CCCCCCCCCCCCCC1=C(OC)C(=O)C(C)=C(NCCCC(=O)OCCCC)C1=O` [Compound 46, Butyl 4-(4-methoxy-2-methyl-3,6-dioxo-5-tridecylcyclohexa-1,4-dienylamino)butanoate] it was 50 ± 5%; in that of `CCCCCCCCCCCCCC1=C(OC)C(=O)C(C)=C(NCCCC(=O)OCCCCCC)C1=O` [Compound 49, Hexyl 4-(4-methoxy-2-methyl-3,6-dioxo-5-tridecylcyclohexa-1,4-dienylamino)butanoate], 16 ± 8%; in that of `CCCCCCCCCCCCCC1=C(NCCCC(=O)OCCCCCC)C(=O)C(C)=C(NCCCC(=O)OCCCCCC)C1=O` [Compound 50, 2,5-bis(hexyl 4-aminobutanoate)-3-methyl-6-tridecylcyclohexa-2,5-diene-1,4-dione], 14 ± 1%.
